Laboratory results from PubChem BioAssay AID2060337 (Molecular Pharmacology Branch, DTP, NCI, 2025).
pIC50: −log10 of the molar value.

System: 832693-133-R-J1-PDC multi-cell spheroids, viability
Experiment: Anticancer human tumor 832693-133-R-J1-PDC patient-derived head and neck squamous carcinoma cell line growth inhibition [IpAb]
Conditions: for pIC50: curve of first compound; for viability, T/C: stronger effect = lower value
Summary of the method: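 Multi-cell spheroids of 60% tumour cells, 25% HUVEC and 15% MSC in ultra-low-attachment U-bottom wells, treated with agents combined with ipatasertib or abemaciclib. Half-log ranges top out near clinical Cmax, or 10 microM when Cmax is unknown.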

[1] = second compound 0.01 µM, first compound 0.0316 µM
[2] = second compound 0.01 µM, first compound 0.1 µM
[3] = second compound 0.0316 µM, first compound 0.0316 µM
[4] = second compound 0.0316 µM, first compound 0.1 µM
[5] = second compound 0.1 µM, first compound 0.0316 µM
[6] = second compound 0.1 µM, first compound 0.1 µM
[7] = second compound 0.316 µM, first compound 0.0316 µM
[8] = second compound 0.316 µM, first compound 0.1 µM
[9] = second compound 1 µM, first compound 0.0316 µM
[10] = second compound 1 µM, first compound 0.1 µM
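Also: spheroids exposed to the drugs for one week before the viability readout.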
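For viability, T/C in this document: 100% = DMSO vehicle control wells.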

C=CC(=O)N1CCN(c2nc(=O)n(-c3c(C)ccnc3C(C)C)c3nc(-c4c(O)cccc4F)c(F)cc23)C(C)C1 (stereo not given) + CCN1CCN(Cc2ccc(Nc3ncc(F)c(-c4cc(F)c5nc(C)n(C(C)C)c5c4)n3)nc2)CC1
pIC50 (second compound 0.01 µM): < 5.00
pIC50 (second compound 0.0316 µM): < 5.00
pIC50 (second compound 0.1 µM): < 5.00
pIC50 (second compound 0.316 µM): < 5.00
pIC50 (second compound 1 µM): < 5.00
viability, T/C [1]: 96.7%
viability, T/C [2]: 104%
viability, T/C (second compound 0.01 µM, first compound 0.316 µM): 105%
viability, T/C (second compound 0.01 µM, first compound 1 µM): 109%
viability, T/C (second compound 0.01 µM, first compound 3.16 µM): 117%
viability, T/C (second compound 0.01 µM, first compound 10 µM): 104%
viability, T/C [3]: 89.5%
viability, T/C [4]: 89.6%
viability, T/C (second compound 0.0316 µM, first compound 0.316 µM): 90.5%
viability, T/C (second compound 0.0316 µM, first compound 1 µM): 92.2%
viability, T/C (second compound 0.0316 µM, first compound 3.16 µM): 115%
viability, T/C (second compound 0.0316 µM, first compound 10 µM): 95%
viability, T/C [5]: 68.8%
viability, T/C [6]: 78.8%
viability, T/C (second compound 0.1 µM, first compound 0.316 µM): 73.3%
viability, T/C (second compound 0.1 µM, first compound 1 µM): 82.9%
viability, T/C (second compound 0.1 µM, first compound 3.16 µM): 101%
viability, T/C (second compound 0.1 µM, first compound 10 µM): 86.3%
viability, T/C [7]: 58.3%
viability, T/C [8]: 59.3%
viability, T/C (second compound 0.316 µM, first compound 0.316 µM): 64%
viability, T/C (second compound 0.316 µM, first compound 1 µM): 64.9%
viability, T/C (second compound 0.316 µM, first compound 3.16 µM): 77.5%
viability, T/C (second compound 0.316 µM, first compound 10 µM): 84.2%
viability, T/C [9]: 53.8%
viability, T/C [10]: 58.9%
viability, T/C (second compound 1 µM, first compound 0.316 µM): 65.5%
viability, T/C (second compound 1 µM, first compound 1 µM): 73.7%
viability, T/C (second compound 1 µM, first compound 3.16 µM): 82.4%
viability, T/C (second compound 1 µM, first compound 10 µM): 98.4%

CC(C)(C)c1cnc(CSc2cnc(NC(=O)C3CCNCC3)s2)o1 + CCN1CCN(Cc2ccc(Nc3ncc(F)c(-c4cc(F)c5nc(C)n(C(C)C)c5c4)n3)nc2)CC1
pIC50 (second compound 0.01 µM): 6.24
pIC50 (second compound 0.0316 µM): 6.65
pIC50 (second compound 0.1 µM): 6.79
pIC50 (second compound 0.316 µM): 6.83
pIC50 (second compound 1 µM): 6.87
viability, T/C (second compound 0.01 µM, first compound 0.00949 µM): 107%
viability, T/C (second compound 0.01 µM, first compound 0.03 µM): 125%
viability, T/C (second compound 0.01 µM, first compound 0.0949 µM): 157%
viability, T/C (second compound 0.01 µM, first compound 0.3 µM): 114%
viability, T/C (second compound 0.01 µM, first compound 0.949 µM): 0.93%
viability, T/C (second compound 0.01 µM, first compound 3 µM): 1.32%
viability, T/C (second compound 0.0316 µM, first compound 0.00949 µM): 97.8%
viability, T/C (second compound 0.0316 µM, first compound 0.03 µM): 112%
viability, T/C (second compound 0.0316 µM, first compound 0.0949 µM): 133%
viability, T/C (second compound 0.0316 µM, first compound 0.3 µM): 27.8%
viability, T/C (second compound 0.0316 µM, first compound 0.949 µM): 0.9%
viability, T/C (second compound 0.0316 µM, first compound 3 µM): 1.39%
viability, T/C (second compound 0.1 µM, first compound 0.00949 µM): 73.8%
viability, T/C (second compound 0.1 µM, first compound 0.03 µM): 93.5%
viability, T/C (second compound 0.1 µM, first compound 0.0949 µM): 104%
viability, T/C (second compound 0.1 µM, first compound 0.3 µM): 6.06%
viability, T/C (second compound 0.1 µM, first compound 0.949 µM): 0.75%
viability, T/C (second compound 0.1 µM, first compound 3 µM): 1.11%
viability, T/C (second compound 0.316 µM, first compound 0.00949 µM): 66.7%
viability, T/C (second compound 0.316 µM, first compound 0.03 µM): 77.5%
viability, T/C (second compound 0.316 µM, first compound 0.0949 µM): 100%
viability, T/C (second compound 0.316 µM, first compound 0.3 µM): 1.34%
viability, T/C (second compound 0.316 µM, first compound 0.949 µM): 1.19%
viability, T/C (second compound 0.316 µM, first compound 3 µM): 1.26%
viability, T/C (second compound 1 µM, first compound 0.00949 µM): 67.9%
viability, T/C (second compound 1 µM, first compound 0.03 µM): 81.3%
viability, T/C (second compound 1 µM, first compound 0.0949 µM): 70.7%
viability, T/C (second compound 1 µM, first compound 0.3 µM): 1.74%
viability, T/C (second compound 1 µM, first compound 0.949 µM): 1.59%
viability, T/C (second compound 1 µM, first compound 3 µM): 1.53%

Cn1ncnc1[C@H]1c2n[nH]c(=O)c3cc(F)cc(c23)N[C@@H]1c1ccc(F)cc1 + CCN1CCN(Cc2ccc(Nc3ncc(F)c(-c4cc(F)c5nc(C)n(C(C)C)c5c4)n3)nc2)CC1
pIC50 (second compound 0.01 µM): < 7.00
pIC50 (second compound 0.0316 µM): < 7.00
pIC50 (second compound 0.1 µM): < 7.00
pIC50 (second compound 0.316 µM): < 7.00
pIC50 (second compound 1 µM): < 7.00
viability, T/C (second compound 0.01 µM, first compound 0.000316 µM): 101%
viability, T/C (second compound 0.01 µM, first compound 0.001 µM): 109%
viability, T/C (second compound 0.01 µM, first compound 0.00316 µM): 93.2%
viability, T/C (second compound 0.01 µM, first compound 0.01 µM): 91.9%
viability, T/C [1]: 94.7%
viability, T/C [2]: 77.3%
viability, T/C (second compound 0.0316 µM, first compound 0.000316 µM): 90.5%
viability, T/C (second compound 0.0316 µM, first compound 0.001 µM): 86.1%
viability, T/C (second compound 0.0316 µM, first compound 0.00316 µM): 73.8%
viability, T/C (second compound 0.0316 µM, first compound 0.01 µM): 74.6%
viability, T/C [3]: 76%
viability, T/C [4]: 69.5%
viability, T/C (second compound 0.1 µM, first compound 0.000316 µM): 60.1%
viability, T/C (second compound 0.1 µM, first compound 0.001 µM): 58%
viability, T/C (second compound 0.1 µM, first compound 0.00316 µM): 61%
viability, T/C (second compound 0.1 µM, first compound 0.01 µM): 70.5%
viability, T/C [5]: 63%
viability, T/C [6]: 63.2%
viability, T/C (second compound 0.316 µM, first compound 0.000316 µM): 59.1%
viability, T/C (second compound 0.316 µM, first compound 0.001 µM): 53.6%
viability, T/C (second compound 0.316 µM, first compound 0.00316 µM): 60.5%
viability, T/C (second compound 0.316 µM, first compound 0.01 µM): 56.5%
viability, T/C [7]: 60.8%
viability, T/C [8]: 56.3%
viability, T/C (second compound 1 µM, first compound 0.000316 µM): 63.6%
viability, T/C (second compound 1 µM, first compound 0.001 µM): 56.2%
viability, T/C (second compound 1 µM, first compound 0.00316 µM): 60.6%
viability, T/C (second compound 1 µM, first compound 0.01 µM): 63.5%
viability, T/C [9]: 65.2%
viability, T/C [10]: 48.2%
